According to paper PMC5007619 (Biochemistry, 2016):

Key:
p300 = p300 (Homo sapiens, UniProt Q09472); test: […]acetyl-CoA nucleosome acetyltransferase assay; type: biochemical
CBP = CBP (Homo sapiens, UniProt Q92793); test: H3K18ac Western blot of nucleosome acetylation by purified CBP; type: biochemical
Chain of CBP (Q92793 2-2442): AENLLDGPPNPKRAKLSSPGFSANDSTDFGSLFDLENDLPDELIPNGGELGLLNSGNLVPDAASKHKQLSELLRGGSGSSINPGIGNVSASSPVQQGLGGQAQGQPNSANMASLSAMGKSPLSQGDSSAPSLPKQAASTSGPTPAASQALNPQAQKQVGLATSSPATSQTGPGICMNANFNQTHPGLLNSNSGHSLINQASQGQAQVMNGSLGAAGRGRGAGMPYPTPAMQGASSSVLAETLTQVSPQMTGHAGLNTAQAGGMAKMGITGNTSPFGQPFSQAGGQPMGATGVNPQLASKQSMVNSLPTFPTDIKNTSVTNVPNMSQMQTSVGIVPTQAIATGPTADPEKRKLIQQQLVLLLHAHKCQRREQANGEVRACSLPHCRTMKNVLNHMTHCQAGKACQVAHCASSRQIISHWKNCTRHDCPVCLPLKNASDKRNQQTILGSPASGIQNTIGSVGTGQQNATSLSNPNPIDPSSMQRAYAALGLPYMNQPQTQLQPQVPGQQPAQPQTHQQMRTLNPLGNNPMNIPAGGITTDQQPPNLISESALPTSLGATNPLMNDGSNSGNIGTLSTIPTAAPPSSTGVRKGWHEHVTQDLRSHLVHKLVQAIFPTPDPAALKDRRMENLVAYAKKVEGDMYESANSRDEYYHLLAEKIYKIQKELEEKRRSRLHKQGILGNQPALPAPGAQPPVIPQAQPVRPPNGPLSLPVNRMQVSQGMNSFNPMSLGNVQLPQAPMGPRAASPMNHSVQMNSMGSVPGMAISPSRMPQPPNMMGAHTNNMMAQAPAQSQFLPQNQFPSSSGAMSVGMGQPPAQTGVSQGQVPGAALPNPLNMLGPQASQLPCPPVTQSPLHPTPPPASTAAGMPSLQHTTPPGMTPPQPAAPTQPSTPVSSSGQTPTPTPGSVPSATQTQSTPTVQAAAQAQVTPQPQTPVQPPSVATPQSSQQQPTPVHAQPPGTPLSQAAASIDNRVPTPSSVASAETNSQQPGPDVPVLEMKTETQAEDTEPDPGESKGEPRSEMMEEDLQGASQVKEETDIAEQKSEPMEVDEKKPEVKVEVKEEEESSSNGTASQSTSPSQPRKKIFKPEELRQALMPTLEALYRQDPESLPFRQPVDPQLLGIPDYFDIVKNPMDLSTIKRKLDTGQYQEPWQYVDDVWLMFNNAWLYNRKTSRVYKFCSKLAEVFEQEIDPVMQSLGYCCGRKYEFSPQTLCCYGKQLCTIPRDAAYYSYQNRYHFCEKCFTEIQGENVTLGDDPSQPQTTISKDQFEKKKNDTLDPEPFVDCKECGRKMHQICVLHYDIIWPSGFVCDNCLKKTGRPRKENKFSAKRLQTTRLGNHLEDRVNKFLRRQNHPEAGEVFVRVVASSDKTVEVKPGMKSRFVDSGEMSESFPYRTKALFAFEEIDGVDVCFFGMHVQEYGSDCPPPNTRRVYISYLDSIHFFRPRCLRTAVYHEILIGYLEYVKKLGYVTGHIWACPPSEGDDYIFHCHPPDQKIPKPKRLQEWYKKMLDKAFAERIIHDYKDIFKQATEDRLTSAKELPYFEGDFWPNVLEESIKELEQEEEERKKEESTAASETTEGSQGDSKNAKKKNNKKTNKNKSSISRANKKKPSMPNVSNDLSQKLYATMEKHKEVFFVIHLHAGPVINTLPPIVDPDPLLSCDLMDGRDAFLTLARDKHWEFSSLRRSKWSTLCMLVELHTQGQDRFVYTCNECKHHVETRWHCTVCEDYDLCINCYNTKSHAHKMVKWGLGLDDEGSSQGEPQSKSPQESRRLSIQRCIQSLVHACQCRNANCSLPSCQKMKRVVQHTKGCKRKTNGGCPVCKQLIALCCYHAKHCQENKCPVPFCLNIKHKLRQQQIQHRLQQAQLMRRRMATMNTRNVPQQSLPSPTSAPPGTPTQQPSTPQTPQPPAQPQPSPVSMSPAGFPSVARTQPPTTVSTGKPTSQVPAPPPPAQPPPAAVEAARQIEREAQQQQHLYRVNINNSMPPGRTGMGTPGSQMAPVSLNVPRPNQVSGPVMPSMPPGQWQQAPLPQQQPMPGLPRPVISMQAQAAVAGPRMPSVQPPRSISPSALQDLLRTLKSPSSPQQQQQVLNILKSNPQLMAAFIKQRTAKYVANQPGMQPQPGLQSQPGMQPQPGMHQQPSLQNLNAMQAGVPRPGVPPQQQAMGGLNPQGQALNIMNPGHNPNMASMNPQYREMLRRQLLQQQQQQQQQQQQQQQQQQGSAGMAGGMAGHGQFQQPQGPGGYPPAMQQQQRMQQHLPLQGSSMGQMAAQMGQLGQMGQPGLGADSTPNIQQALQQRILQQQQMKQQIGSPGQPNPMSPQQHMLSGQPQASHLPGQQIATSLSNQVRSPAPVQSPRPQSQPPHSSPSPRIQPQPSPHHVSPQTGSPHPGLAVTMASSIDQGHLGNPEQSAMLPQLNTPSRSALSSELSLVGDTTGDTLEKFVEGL

Chain of p300 (Q09472 2-2414): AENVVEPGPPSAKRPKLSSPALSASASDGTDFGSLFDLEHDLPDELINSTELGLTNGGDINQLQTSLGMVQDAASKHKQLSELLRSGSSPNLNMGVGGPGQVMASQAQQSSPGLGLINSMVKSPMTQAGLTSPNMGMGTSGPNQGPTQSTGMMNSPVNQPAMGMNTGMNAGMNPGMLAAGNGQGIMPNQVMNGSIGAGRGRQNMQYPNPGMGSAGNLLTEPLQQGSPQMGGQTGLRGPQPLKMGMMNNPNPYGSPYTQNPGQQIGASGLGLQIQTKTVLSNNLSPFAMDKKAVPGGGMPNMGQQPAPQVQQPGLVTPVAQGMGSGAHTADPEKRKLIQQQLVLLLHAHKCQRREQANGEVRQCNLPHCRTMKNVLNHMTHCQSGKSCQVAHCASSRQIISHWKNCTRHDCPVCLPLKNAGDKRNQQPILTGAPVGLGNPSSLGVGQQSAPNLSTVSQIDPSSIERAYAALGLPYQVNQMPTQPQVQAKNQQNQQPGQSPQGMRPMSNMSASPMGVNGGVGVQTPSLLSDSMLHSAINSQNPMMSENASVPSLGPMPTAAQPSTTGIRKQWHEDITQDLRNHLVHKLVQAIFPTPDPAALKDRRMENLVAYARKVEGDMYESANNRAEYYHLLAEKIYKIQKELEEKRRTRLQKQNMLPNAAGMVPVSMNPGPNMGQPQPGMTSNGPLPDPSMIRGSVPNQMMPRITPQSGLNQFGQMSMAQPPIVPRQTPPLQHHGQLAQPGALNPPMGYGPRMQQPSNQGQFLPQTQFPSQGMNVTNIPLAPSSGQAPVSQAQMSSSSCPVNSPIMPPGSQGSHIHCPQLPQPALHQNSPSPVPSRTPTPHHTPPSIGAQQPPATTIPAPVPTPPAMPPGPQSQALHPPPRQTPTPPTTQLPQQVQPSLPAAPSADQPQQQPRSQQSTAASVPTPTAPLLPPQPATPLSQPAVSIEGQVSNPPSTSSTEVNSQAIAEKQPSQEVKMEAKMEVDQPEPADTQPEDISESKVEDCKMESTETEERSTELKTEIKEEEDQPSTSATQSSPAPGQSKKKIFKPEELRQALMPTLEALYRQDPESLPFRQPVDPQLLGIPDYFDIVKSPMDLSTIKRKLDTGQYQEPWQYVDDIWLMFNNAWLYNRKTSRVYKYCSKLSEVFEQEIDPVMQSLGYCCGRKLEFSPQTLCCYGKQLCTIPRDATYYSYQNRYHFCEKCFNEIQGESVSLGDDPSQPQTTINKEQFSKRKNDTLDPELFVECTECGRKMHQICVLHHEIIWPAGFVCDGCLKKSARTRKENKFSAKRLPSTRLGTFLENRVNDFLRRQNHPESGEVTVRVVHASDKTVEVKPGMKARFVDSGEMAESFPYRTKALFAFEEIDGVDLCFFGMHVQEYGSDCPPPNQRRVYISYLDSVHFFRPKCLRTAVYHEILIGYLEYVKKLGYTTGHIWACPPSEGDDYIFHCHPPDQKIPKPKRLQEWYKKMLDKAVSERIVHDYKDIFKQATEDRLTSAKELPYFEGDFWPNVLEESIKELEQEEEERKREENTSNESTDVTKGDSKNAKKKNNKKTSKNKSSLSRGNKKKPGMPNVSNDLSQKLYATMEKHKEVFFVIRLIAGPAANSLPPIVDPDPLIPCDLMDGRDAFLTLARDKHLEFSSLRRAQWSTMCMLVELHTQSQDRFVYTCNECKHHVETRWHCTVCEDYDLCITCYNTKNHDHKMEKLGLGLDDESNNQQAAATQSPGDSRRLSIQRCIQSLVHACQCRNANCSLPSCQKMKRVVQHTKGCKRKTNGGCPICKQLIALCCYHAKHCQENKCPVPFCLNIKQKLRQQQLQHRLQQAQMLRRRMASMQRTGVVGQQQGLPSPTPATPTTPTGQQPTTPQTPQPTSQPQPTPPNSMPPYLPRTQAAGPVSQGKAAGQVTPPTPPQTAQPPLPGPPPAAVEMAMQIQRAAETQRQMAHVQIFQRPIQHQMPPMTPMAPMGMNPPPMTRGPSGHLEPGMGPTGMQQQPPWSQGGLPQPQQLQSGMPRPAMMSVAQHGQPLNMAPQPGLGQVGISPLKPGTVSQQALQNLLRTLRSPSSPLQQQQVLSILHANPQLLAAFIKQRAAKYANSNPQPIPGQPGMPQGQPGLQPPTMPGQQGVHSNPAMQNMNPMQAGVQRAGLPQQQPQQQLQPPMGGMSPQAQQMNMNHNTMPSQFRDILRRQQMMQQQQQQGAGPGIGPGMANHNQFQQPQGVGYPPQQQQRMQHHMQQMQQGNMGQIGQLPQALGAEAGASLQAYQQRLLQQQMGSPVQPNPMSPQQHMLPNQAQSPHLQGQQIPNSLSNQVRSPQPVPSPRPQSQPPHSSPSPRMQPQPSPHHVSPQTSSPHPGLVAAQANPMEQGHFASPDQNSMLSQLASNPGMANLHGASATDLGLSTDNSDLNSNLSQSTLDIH

## CCC(=O)N1CCOc2c(cc(-c3ccc(OC)c(OC)c3)cc2OC[C@H]2CCCN(C)C2)C1 [I-CBP112, 1-[7-(3,4-dimethoxyphenyl)-9-{[(3S)-1-methylpiperidin-3-yl]-methoxy}-2,3,4,5-tetrahydro-1,4-benzoxazepin-4-yl]propan-1-one]
p300
  EC50: 11 ± 3 µM
CBP
  EC50: ~2000 nM
